Data on twelve compounds can be found in the SangsterLogP compilation.

What is called logP is a log measure of how a compound divides between an organic and an aqueous phase. A low value points to a more hydrophilic compound. In turn, `CCN1C(=O)NC(Cc2ccccc2)C1=O` (configuration not stated) displayed a logP of 1.61.
The compound `CN1C(=O)NC(c2ccccc2)(c2ccccc2)C1=O` returned a logP of 2.28.
As for `CN1CC(=O)N(c2ccccc2)C1=O`, the figure is 0.14.
With `CC(C)C1NC(=O)NC1=O` (configuration not stated), the logP was -0.36.
`O=C1NC(=O)C(Cc2ccccc2)(Cc2ccccc2)N1`: the logP is 2.46.
Consider `O=C1CNC(=O)N1`, for which the logP was -1.53.
In turn, `O=C1NC(Cc2ccccc2)C(=O)N1c1ccccc1` (configuration not stated) gave a log partition coefficient (logP) of 2.27.
Turning to `O=C1CNC(=O)N1Cc1ccccc1`, the logP turned out to be 0.82.
As for `CC(C)CC1NC(=O)NC1=O` (configuration not stated), the figure is 0.35; as for `CC1NC(=O)NC1=O` (configuration not stated), -0.95; as for `CCC1(c2ccccc2)NC(=O)N(C)C1=O` (configuration not stated), 1.69.
`O=C1NC(Cc2ccccc2)C(=O)N1Cc1ccccc1` (configuration not stated) displayed a logP of 2.84.
